The record followed here is patent publication US9669028B2, “Substituted 5-(pyrazin-2-yl)-1H-pyrazolo [3, 4-B] pyridine and pyrazolo [3, 4-B] pyridine derivatives as protein kinase inhibitors” (Arrien Pharmaceuticals LLC, priority 2011, dated 2017).

Holding throughout (type): biochemical
One assay deals with LRRK2 G2019S (Homo sapiens (Human), UniProt Q5S007, G2019S). The experiment in a line: LRRK2 G2019S Kinase Assay. The settings on record: 10 μM ATP. The procedure:
Procedure: Enzyme was incubated with substrate peptide in reaction buffer in the presence and absence of test compounds or Staurosporine. All additions were done on ice, followed by the addition of ATP mix. Wells were uniformly mixed using an Eppendorff plate shaker and incubated at 30° C. for 20 min, and stopped by the addition of 5 μl of 3% phosphoric acid. Volume was increased to 100 μl by adding 0.8% phosphoric acid which was then transferred to PC filter mats (Millipore), pre-equilibrated with 70% ethanol and water. Plates were washed thrice with 100 μl 0.8% phosphoric acid and dried for an hour at 60° C. 100 μl scintillation fluid was added into each well and reading taken in Perkin Elmer TOPCOUNT beta counter. […] A validation EC50 curve was generated by plotting CPM for each Staurosporine concentration on y-axis against the Log concentration of Staurosporine (nM) on the x-axis followed by a best fit curve through the points.
After 1 hour Kinase Reaction incubation, 5 μL of Detection Mix was added.

The next assay has as its target DYRK1A (Homo sapiens (Human), UniProt Q13627). The experiment in a line: In vitro DYRK1A inhibition assay. How it is done:
(§1) Briefly, specific kinase/substrate pairs along with required cofactors were prepared in reaction buffer; 20 mM Hepes (pH 7.5), 10 mM MgCl2, 1 mM EGTA, 0.02% Brij35, 0.02 mg/ml BSA, 0.1 mM Na3VO4, 2 mM DTT, 1% DMSO. Compounds were delivered into the reaction, followed ˜20 min later by addition of a mixture of ATP (Sigma) and 33P ATP (PerkinElmer) to a final concentration of 10 μM. […] IC50 values and curve fits were obtained using Prism (GraphPad Software). Kinome tree representations were prepared using Kinome Mapper (http://www.reactionbiology.com/apps/kinome/mapper/Launch Kinome.htm).
The 2×DYRK1A/Ser/Thr 18 mixture was prepared in 50 mM HEPES pH 7.5, 0.01% BRIJ-35, 10 mM MgCl2, 1 mM EGTA.

The next assay addresses LRRK2 (Homo sapiens (Human), UniProt Q5S007). The experiment in a line: LRRK2 Kinase Assay. The settings on record: 10 μM ATP. How it is done: as §1
For the wild type LRRK the 2×LRRK2/ERM (LRRKtide) mixture was prepared in 50 mM Tris pH 8.5, 0.01% BRIJ-35, 10 mM MgCl2, 1 mM EGTA, 0.02% NaN3. […] After 1 hour Kinase Reaction incubation, 5 μL of Detection Mix was added.

Molecules are shown by their SMILES.

Sequence of LRRK2 G2019S (Q5S007 970-2527 G2019S): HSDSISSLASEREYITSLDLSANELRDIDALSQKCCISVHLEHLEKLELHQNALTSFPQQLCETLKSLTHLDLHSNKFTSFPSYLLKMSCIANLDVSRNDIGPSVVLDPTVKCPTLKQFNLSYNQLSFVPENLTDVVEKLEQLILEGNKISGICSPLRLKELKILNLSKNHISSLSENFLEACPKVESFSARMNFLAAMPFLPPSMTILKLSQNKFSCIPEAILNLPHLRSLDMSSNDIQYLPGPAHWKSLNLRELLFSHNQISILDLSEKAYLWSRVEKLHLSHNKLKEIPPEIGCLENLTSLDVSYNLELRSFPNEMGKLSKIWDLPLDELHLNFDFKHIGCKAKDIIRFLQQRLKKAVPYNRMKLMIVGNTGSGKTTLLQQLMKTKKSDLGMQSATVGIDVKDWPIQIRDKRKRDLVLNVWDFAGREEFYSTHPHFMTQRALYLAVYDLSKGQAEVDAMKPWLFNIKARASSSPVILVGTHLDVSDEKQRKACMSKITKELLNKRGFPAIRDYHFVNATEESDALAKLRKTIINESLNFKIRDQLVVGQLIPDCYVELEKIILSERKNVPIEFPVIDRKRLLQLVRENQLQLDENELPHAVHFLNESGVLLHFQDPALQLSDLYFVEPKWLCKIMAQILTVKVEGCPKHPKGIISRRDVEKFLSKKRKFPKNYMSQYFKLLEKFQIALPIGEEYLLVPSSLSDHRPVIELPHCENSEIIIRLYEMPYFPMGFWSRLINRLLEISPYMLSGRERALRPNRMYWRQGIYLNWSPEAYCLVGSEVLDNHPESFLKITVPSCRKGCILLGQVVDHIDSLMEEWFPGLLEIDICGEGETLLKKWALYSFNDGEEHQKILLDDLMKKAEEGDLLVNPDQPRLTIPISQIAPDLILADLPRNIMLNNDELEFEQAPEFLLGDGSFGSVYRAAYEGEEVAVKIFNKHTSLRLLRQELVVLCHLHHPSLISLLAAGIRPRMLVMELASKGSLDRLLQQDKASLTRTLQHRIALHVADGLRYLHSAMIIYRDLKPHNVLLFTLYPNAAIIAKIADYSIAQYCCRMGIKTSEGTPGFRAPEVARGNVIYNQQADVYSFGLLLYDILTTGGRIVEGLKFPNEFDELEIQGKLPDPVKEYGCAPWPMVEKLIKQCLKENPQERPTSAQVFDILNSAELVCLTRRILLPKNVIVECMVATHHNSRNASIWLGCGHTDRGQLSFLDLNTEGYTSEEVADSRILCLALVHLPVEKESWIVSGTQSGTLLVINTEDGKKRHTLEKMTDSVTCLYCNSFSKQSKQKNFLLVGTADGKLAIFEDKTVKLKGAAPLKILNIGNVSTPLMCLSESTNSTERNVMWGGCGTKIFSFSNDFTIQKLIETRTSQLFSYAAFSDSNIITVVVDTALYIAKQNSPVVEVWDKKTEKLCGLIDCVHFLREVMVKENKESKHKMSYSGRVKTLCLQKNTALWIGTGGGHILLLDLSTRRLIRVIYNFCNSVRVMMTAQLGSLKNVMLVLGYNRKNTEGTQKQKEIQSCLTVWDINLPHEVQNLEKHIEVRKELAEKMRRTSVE
Sequence of LRRK2 (Q5S007 970-2527): as the sequence (Q5S007 970-2527 G2019S) above, with S1050G counted along it

In general, IC50 refers to the concentration that gives 50% inhibition. Lower therefore signals greater potency in that assay. Consider `Cc1n[nH]c2ncc(-c3cncc(N4CCN(C)CC4)n3)cc12` [Compound 65, 3-methyl-5-(6-(4-methylpiperazin-1-yl)pyrazin-2-yl)-1H-pyrazolo[3,4-b]pyridine], for which the concentration for half-maximal inhibition (IC50) against LRRK2 G2019S was below 500 nM; against DYRK1A, above 1000 nM; against LRRK2, below 500 nM.

With `FC1(F)CCN(c2cncc(-c3cnc4[nH]ccc4c3)n2)C1` [Compound 135, 5-(6-(3,3-difluoropyrrolidin-1-yl)pyrazin-2-yl)-1H-pyrrolo[2,3-b]pyridine], the half-inhibitory concentration (IC50) at LRRK2 G2019S, at DYRK1A and on LRRK2 was above 500 nM throughout.

With `Cc1n[nH]c2ncc(-c3cccc(NC4CCN(C)CC4)c3)cc12` [Compound 98, 1-methyl-N-(3-(3-methyl-1H-pyrazolo[3,4-b]pyridin-5-yl)phenyl)piperidin-4-amine], the IC50 against LRRK2 G2019S, at DYRK1A and against LRRK2 was above 1000 nM throughout.

Take `Cc1n[nH]c2ncc(-c3cncc(NC(=O)C4CCN(C)CC4)n3)cc12` [Compound 39]: the concentration for half-maximal inhibition (IC50) against LRRK2 G2019S, against DYRK1A and at LRRK2 was above 500 nM each time.

Turning to `Cc1n[nH]c2ncc(-c3cnn(C)c3)cc12` [Compound 108, 3-methyl-5-(1-methyl-1H-pyrazol-4-yl)-1H-pyrazolo[3,4-b]pyridine], the IC50 on LRRK2 G2019S, against DYRK1A and against LRRK2 was above 500 nM in each case.

Regarding `Cc1n[nH]c2ncc(-c3cncc(NC4CCN(CCO)CC4)n3)cc12` [Compound 81, 2-(4-((6-(3-methyl-1H-pyrazolo[3,4-b]pyridin-5-yl)pyrazin-2-yl)amino)piperidin-1-yl)ethanol], the IC50 against LRRK2 G2019S, against DYRK1A and on LRRK2 was below 500 nM throughout.

Turning to `O=C1CCCN1c1cncc(-c2cnc3[nH]ccc3c2)n1` [Compound 131, 1-(6-(1H-pyrrolo[2,3-b]pyridin-5-yl)pyrazin-2-yl)pyrrolidin-2-one], the half-inhibitory concentration (IC50) on LRRK2 G2019S, against DYRK1A and against LRRK2 was above 500 nM each time.

As for `Cc1n[nH]c2ncc(-c3cncc(N4CCC(F)(F)C4)n3)cc12` [Compound 56, 5-(6-(3,3-difluoropyrrolidin-1-yl)pyrazin-2-yl)-3-methyl-1H-pyrazolo[3,4-b]pyridine], the IC50 against LRRK2 G2019S was above 500 nM; on DYRK1A, above 1000 nM; against LRRK2 it was above 500 nM.

With `Fc1c[nH]c2ncc(-c3cncc(N4CCOCC4)n3)cc12` [Compound 150, 4-(6-(3-fluoro-1H-pyrrolo[2,3-b]pyridin-5-yl)pyrazin-2-yl)morpholine], the IC50 at LRRK2 G2019S, against DYRK1A and against LRRK2 was below 500 nM throughout.

As to `Cc1n[nH]c2ncc(-c3cncc(C(=O)N4CCCCC4)n3)cc12` [Compound 77, (6-(3-methyl-1H-pyrazolo[3,4-b]pyridin-5-yl)pyrazin-2-yl)(piperidin-1-yl)metha-none], the values for the 50% inhibitory concentration (IC50) against LRRK2 G2019S, on DYRK1A and against LRRK2 were above 500 nM, above 1000 nM and above 500 nM, respectively.

On to `Cc1n[nH]c2ncc(-c3cncc(N4CCc5ccccc54)n3)cc12` [Compound 90, 5-(6-(indolin-1-yl)pyrazin-2-yl)-3-methyl-1H-pyrazolo[3,4-b]pyridine], for which the IC50 at LRRK2 G2019S, against DYRK1A and against LRRK2 was below 500 nM throughout.

Consider `OC1CCN(c2cncc(-c3cnc4[nH]ccc4c3)n2)CC1` [Compound 137, 1-(6-(1H-pyrrolo[2,3-b]pyridin-5-yl)pyrazin-2-yl)piperidin-4-ol], for which the IC50 on LRRK2 G2019S, at DYRK1A and on LRRK2 was below 500 nM throughout.

Turning to `Cc1n[nH]c2ncc(-c3cncc(NC4CCN(C(C)C)CC4)n3)cc12` [Compound 87, N-(1-isopropylpiperidin-4-yl)-6-(3-methyl-1H-pyrazolo[3,4-b]pyridin-5-yl)pyrazin-2-amine], the IC50 on LRRK2 G2019S, on DYRK1A and against LRRK2 was above 500 nM each time.

As for `Cc1n[nH]c2ncc(NC3CCCN(Cc4ccc(Cl)cc4)C3)cc12` (stereo not drawn) [Compound 27, N-(1-(4-Chlorobenzyl)piperidin-3-yl)-3-methyl-1H-pyrazolo[3,4-b]pyridid-5-amine], the 50% inhibitory concentration (IC50) on LRRK2 G2019S, on DYRK1A and on LRRK2 was above 500 nM throughout.

Turning to `Cc1n[nH]c2ncc(-c3cncc(N4CCCC4=O)n3)cc12` [Compound 48, 1-(6-(3-methyl-1H-pyrazolo[3,4-b]pyridin-5-yl)pyrazin-2-yl)pyrrolidin-2-one], the concentration for half-maximal inhibition (IC50) against LRRK2 G2019S was above 500 nM; against DYRK1A, above 1000 nM; at LRRK2 it was above 500 nM.

As for `Cc1n[nH]c2ncc(-c3cncc(N4CCN(CCO)CC4)n3)cc12` [Compound 59, 2-(4-(6-(3-methyl-1H-pyrazolo[3,4-b]pyridin-5-yl)pyrazin-2-yl)piperazin-1-yl)ethanol], the 50% inhibitory concentration (IC50) is below 500 nM against LRRK2 G2019S, above 500 nM on DYRK1A and below 500 nM on LRRK2.

Regarding `Cc1n[nH]c2ncc(-c3cncc(N4CCNC(=O)C4)n3)cc12` [Compound 83, 4-(6-(3-methyl-1H-pyrazolo[3,4-b]pyridin-5-yl)pyrazin-2-yl)piperazin-2-one], the IC50 against LRRK2 G2019S, at DYRK1A and on LRRK2 was above 500 nM in each case.

For `c1cnc(N2CCCC2)c(-c2cnc3[nH]ccc3c2)n1` [Compound 128, 5-(3-(pyrrolidin-1-yl)pyrazin-2-yl)-1H-pyrrolo[2,3-b]pyridine], the IC50 against LRRK2 G2019S, on DYRK1A and against LRRK2 was above 500 nM throughout.

For `CN(CC1CCOCC1)c1cncc(-c2cnc3[nH]cc(Cl)c3c2)n1` [Compound 144, 6-(3-chloro-1H-pyrrolo[2,3-b]pyridin-5-yl)-N-methyl-N-((tetrahydro-2H-pyran-4-yl)methyl)pyrazin-2-amine], the IC50 on LRRK2 G2019S, against DYRK1A and against LRRK2 was below 500 nM each time.

Regarding `Cc1n[nH]c2ncc(-c3cncc(Nc4cccc(N5CCCC5=O)c4)n3)cc12` [Compound 94, 1-(3-((6-(3-methyl-1H-pyrazolo[3,4-b]pyridin-5-yl)pyrazin-2-yl)amino)phenyl)pyrrolidin-2-one], the IC50 at LRRK2 G2019S was below 500 nM; at DYRK1A, above 500 nM; against LRRK2 it was below 500 nM.

`Cc1n[nH]c2ncc(-c3cncc(OCCN4CCN(C)CC4)n3)cc12` [Compound 33, 5-(6-(2-(4-methylpiperazin-1-yl)ethoxy)pyrazin-2-yl)-3-methyl-1H-pyrazolo[3,4-b]pyridine]: the IC50 on LRRK2 G2019S, against DYRK1A and against LRRK2 was above 500 nM throughout.

Turning to `CN(CC1CCOCC1)c1cncc(-c2cnc3[nH]cc(F)c3c2)n1` [Compound 145, 6-(3-fluoro-1H-pyrrolo[2,3-b]pyridin-5-yl)-N-methyl-N-((tetrahydro-2H-pyran-4-yl)methyl)pyrazin-2-amine], the half-maximal inhibitory concentration (IC50) against LRRK2 G2019S, against DYRK1A and at LRRK2 was below 500 nM throughout.

As for `Clc1c[nH]c2ncc(-c3cncc(N4CCOCC4)n3)cc12` [Compound 149, 4-(6-(3-chloro-1H-pyrrolo[2,3-b]pyridin-5-yl)pyrazin-2-yl)morpholine], the half-maximal inhibitory concentration (IC50) against LRRK2 G2019S, at DYRK1A and against LRRK2 was below 500 nM in each case.
